# Laboratory results taken from article PMC8121805, “Discovery of first-in-class inhibitors of ASH1L histone methyltransferase with anti-leukemic activity” (Nature Communications, 2021).
# Several values for one entry are separate records, joined by “and”; a condition that tells them apart may be missing. Equal entries are not always repeated.
# Legend:
# Type in all cases: cell-based, human
# K562 cells = test: MTT cell viability assay; details: MTT, 7 days
# Description: (§1) Human leukemia cells K562, MV4;11 and RS4;11 (purchased from ATCC) and KOPN8, MOLM13 (purchased from DSMZ) were cultured in RPMI 1640 (Invitrogen) supplemented with 10% heat inactivated (h.i.) FBS and 1% penicillin/streptomycin (Invitrogen). SET2 cells (purchased from DSMZ) were cultured in RPMI 1640 supplemented with 20% h.i. FBS and 1% penicillin/streptomycin. Cells were plated at 1 × 10^5 to 2 × 10^5 cells/mL depending on cell line and treated with 0.25% DMSO or varying concentrations of compounds and incubated at 37 °C, 5% CO2 incubator for 7 days. Media was changed on day 3 or 4 and compounds were resupplied. […] Cell suspensions (100 μL) were transferred to the 96-well plates for each sample in quadruplicate at the time of media change. At day 7, 10 µL of MTT reagent (M6494, Molecular Probes™) was added to each well of the 96 well plate and incubated at 37 °C for 4 h. The formazan was then solubilized by adding 100 µL acidified 10% SDS solution and incubated at 37 °C overnight. Plates were read for absorbance at 570 nm using a PHERAstar BMG microplate reader. The experiments were performed two times in quadruplicates with calculation of mean and SD for each condition. Data were analyzed in Prism 8.0.0 to obtain GI50 values.
# (§2) Supplementary Figure 7. […] (a)
# (§3) Titration curves from the MTT cell viability assay performed after 4, 7, and 11 (or 10) days of
# (§4) Titration curves from the MTT cell viability assay performed after 7 days of treatment of KOPN8 ,
# (§5) MOLM13 and MV4;11 cell lines harboring MLL1 translocation (MLL1-r) or K562 cell line (non-
# (§6) Representative graphs are shown
# (§7) from two independent MTT experiments performed for each cell line. GI50 values correspond to […]
# KOPN8 cells [1] = test: MTT cell viability assay; details: MTT, 7 days
# Description: as §1, §2, §3, §4, §5, §6, §7
# KOPN8 cells [2] = test: Annexin V apoptosis assay (flow cytometry); details: 7 days
# [3] = system: MLL fusion target genes in MV4;11 cells; test: Real time qRT-PCR gene expression; details: AS-nc 3 uM
# Description: (§8) 0.5 × 10^6 – 3 × 10^6 cells from each sample were collected at days 7 or 8 of treatment, centrifuged at 211 xg, and RNA was extracted according to the RNeasy Mini Kit protocol (74106, Qiagen). Extracted RNA was quantified using Nanodrop 2000 UV-Vis spectrophotometer and 0.5–1 µg of total RNA was reverse transcribed into cDNA using High-Capacity cDNA Reverse Transcription Kit (4368814, Applied Biosystems™) according to the manufacturer’s protocol. Real-time PCR was performed using the CFX96 Touch Real-Time PCR Detection System (Bio-Rad). TaqMan Gene Expression Master Mix and TaqMan Gene Expression Assays were purchased from Applied Biosystems. Relative quantification of each gene transcript was carried out using the comparative Ct method as described in the Applied Biosystems User Bulletin no. 2. TaqMan Gene Expression Assays were used: HPRT1: Hs02800695_m1, DLX2: Hs00269993_m1, FLT3: Hs00174690_m1, HOXA9: Hs00365956_m1, MEF2C: Hs00231149_m1, MEIS1: Hs00180020_m1, MNDA: Hs00935905_m1.
# (§9) Supplementary Figure 10. Effect of AS-nc on gene expression in MLL leukemia cells. (a, b) Quantitative RT-PCR performed in MOLM13 cells (a) or MV4;11 cells (b) after 7 days of treatment with AS-nc. Gene expression was normalized to HPRT1 and referenced to the DMSO treated cells. Representative data from two independent experiments, each performed in triplicates, […]
# [4] = system: MLL fusion target genes in MOLM13 cells; test: Real time qRT-PCR gene expression
# Description: as §8, §9
# MV4;11 cells [5] = test: Annexin V apoptosis assay (flow cytometry); details: for MV4;11 % Annexin V(+) cells: 7 days
# MV4;11 cells [6] = test: Flow cytometry of CD11B expression (differentiation); details: for MV4;11 % CD11B+ cells: 7 days
# Description: (§10) In addition, 1 × 10^5 cells per sample were stained with Zombie Aqua™ dye (1:100 dilution) for 15 min using the Zombie Aqua™ Fixable Viability Kit (Zombie Aqua™ Fixable Viability Kit, Biolegend®) […] and then for 30 min with an anti-CD11B-PE antibody (982606, ICRF44, Biolegend®) or anti-CD11B-Pacific Blue (101224, BD BioLegend) antibody at 1:50 dilution, according to the No-wash Sequential Staining Protocol described by the manufacturer (BioLegend, Zombie Aqua Fixable Viability Kit). Cells were washed twice with 500 µL PBS containing 1% FBS and resuspended in 200 µL PBS with 1% FBS.
# KOPN8 cells [7] = test: as above; details: 7 days
# Description: as §10
compound,measurement,setting,value
CN1CC(C(=O)NCc2ccc3c(-c4cccc(C(N)=O)c4)cn(C4CCN(S(=O)(=O)C(F)(F)F)CC4)c3c2)C1 [AS-nc],% activity K562,K562 cells; log[compound] -4.92082,87.2356% and 88.3293% and 79.0617% and 81.4793%
same,% activity K562,K562 cells; log[compound] -5.22185,96.906% and 94.8338% and 87.581% and 99.8993%
same,% activity K562,K562 cells; log[compound] -5.52288,91.5527% and 87.8688% and 87.2356% and 88.1566%
same,% activity K562,K562 cells; log[compound] -5.82391,106.979% and 101.569% and 98.9783% and 92.4737%
same,% activity K562,K562 cells; log[compound] -6.12494,95.2367% and 84.818% and 86.8902% and 88.0414%
same,% activity K562,K562 cells; log[compound] -6.42597,88.8473% and 100.475% and 98.4026% and 99.0934%
same,% activity KOPN-8,KOPN8 cells [1]; log[compound] -4.92082,88.0603% and 89.0658% and 78.5086% and 67.1135%
same,% activity KOPN-8,KOPN8 cells [1]; log[compound] -5.22185,96.2715% and 87.8928% and 88.5631% and 98.2824%
same,% activity KOPN-8,KOPN8 cells [1]; log[compound] -5.52288,93.4227% and 96.9418% and 95.7687% and 88.2279%
same,% activity KOPN-8,KOPN8 cells [1]; log[compound] -5.82391,91.9145% and 89.5685% and 90.7415% and 92.2497%
same,% activity KOPN-8,KOPN8 cells [1]; log[compound] -6.12494,92.2497% and 92.4173% and 96.2715% and 88.7306%
same,% activity KOPN-8,KOPN8 cells [1]; log[compound] -6.42597,96.439% and 101.969% and 107.164% and 94.4282%
same,KOPN8 % Annexin V(+) cells,KOPN8 cells [2]; 2 uM,6.32% and 5.25% and 5.31%
same,KOPN8 % Annexin V(+) cells,KOPN8 cells [2]; 4 uM,7.36% and 6.41% and 6.28%
same,KOPN8 % Annexin V(+) cells,KOPN8 cells [2]; 6 uM,7.96% and 6.03% and 6.25%
same,"MV4;11 fold change vs DMSO, FLT3",[3],1.06 and 0.99 and 0.95
same,"MV4;11 fold change vs DMSO, HOXA9",[3],1.01 and 0.9
same,"MV4;11 fold change vs DMSO, MEF2C",[3],1.19 and 1.02 and 0.92
same,"MV4;11 fold change vs DMSO, MESIS1",[3],0.86 and 1.07 and 0.96
same,"MOLM13 fold change vs DMSO, DLX2",[4]; AS-nc 2 uM,1.06 and 1.01 and 0.76
same,"MOLM13 fold change vs DMSO, FLT3",[4]; AS-nc 2 uM,1.07 and 0.95 and 0.92
same,"MOLM13 fold change vs DMSO, HOXA9",[4]; AS-nc 2 uM,1.01 and 1.09 and 0.84
same,"MOLM13 fold change vs DMSO, MEF2C",[4]; AS-nc 2 uM,0.98 and 1.02 and 0.94
same,"MOLM13 fold change vs DMSO, MEIS1",[4]; AS-nc 2 uM,1.03 and 1.08 and 0.97
same,"MOLM13 fold change vs DMSO, MNDA",[4]; AS-nc 2 uM,1.45 and 1.05 and 1.01
same,"MOLM13 fold change vs DMSO, DLX2",[4]; AS-nc 4 uM,1.02 and 0.96 and 0.71
same,"MOLM13 fold change vs DMSO, FLT3",[4]; AS-nc 4 uM,1.03 and 0.86 and 0.96
same,"MOLM13 fold change vs DMSO, HOXA9",[4]; AS-nc 4 uM,0.95 and 1 and 1.06
same,"MOLM13 fold change vs DMSO, MEF2C",[4]; AS-nc 4 uM,1 and 0.95 and 1.01
same,"MOLM13 fold change vs DMSO, MEIS1",[4]; AS-nc 4 uM,0.97 and 1.1 and 0.95
same,"MOLM13 fold change vs DMSO, MNDA",[4]; AS-nc 4 uM,1.29 and 1.57 and 1.44
same,"MOLM13 fold change vs DMSO, DLX2",[4]; AS-nc 6 uM,1.04 and 1 and 0.77
same,"MOLM13 fold change vs DMSO, FLT3",[4]; AS-nc 6 uM,1.07 and 0.95 and 0.88
same,"MOLM13 fold change vs DMSO, HOXA9",[4]; AS-nc 6 uM,1.03 and 0.88 and 0.9
same,"MOLM13 fold change vs DMSO, MEF2C",[4]; AS-nc 6 uM,1.03 and 0.94 and 0.96
same,"MOLM13 fold change vs DMSO, MEIS1",[4]; AS-nc 6 uM,0.86 and 1.09 and 0.93
same,"MOLM13 fold change vs DMSO, MNDA",[4]; AS-nc 6 uM,1.31 and 1.06 and 0.93
same,"expression of MLL fusion target genes (MEF2C, DLX2, FLT3, HOXA9)",[4]; MOLM13 and MV4;11,no changes
same,MV4;11 % Annexin V(+) cells,MV4;11 cells [5]; 2 uM,3.62% and 6.04% and 7.38%
same,MV4;11 % Annexin V(+) cells,MV4;11 cells [5]; 4 uM,2.35% and 3.67% and 4.83%
same,MV4;11 % Annexin V(+) cells,MV4;11 cells [5]; 6 uM,3% and 3.59% and 6.28%
same,apoptosis in the MLL leukemia cells (Annexin V positive cells),MV4;11 cells [5]; MV4;11 and KOPN8,not observed
same,MV4;11 % CD11B+ cells,MV4;11 cells [6]; 2 uM,1.31% and 1.08% and 1.06%
same,MV4;11 % CD11B+ cells,MV4;11 cells [6]; 4 uM,0.67% and 0.84% and 0.66%
same,MV4;11 % CD11B+ cells,MV4;11 cells [6]; 6 uM,1.1% and 1.04% and 1.27%
same,differentiation in MLL leukemia cells,MV4;11 cells [6]; MV4;11 and KOPN8,not observed
same,KOPN8 % CD11B+ cells,KOPN8 cells [7]; 2 uM,0.42% and 0.43% and 0.48%
same,KOPN8 % CD11B+ cells,KOPN8 cells [7]; 4 uM,0.64% and 0.72% and 0.67%
same,KOPN8 % CD11B+ cells,KOPN8 cells [7]; 6 uM,0.89% and 0.7% and 0.72%
